Source: ChEMBL document CHEMBL1159185, “Metabolism and structure activity data based drug design: discovery of () SCH 53079 an analog of the potent cholesterol absorption inhibitor () SCH 48461” (1996)

Legend:
[1] = system: Cricetinae gen. sp.; assay: Compound was evaluated for the reduction of liver cholesterol ester levels in the cholesterol-fed Hamster model at 50 mg/kg; assay type: functional
[2] = system: Cricetinae gen. sp.; assay: Compound was evaluated for the reduction of liver cholesterol ester levels in the cholesterol-fed Hamster model at 50 mpk; assay type: functional
[3] = system: Monkey; assay: Compound was evaluated for the reduction of liver cholesterol ester levels in the cholesterol-fed rhesus monkey model.; assay type: functional, Cercopithecidae
[4] = system: Cricetinae gen. sp.; assay: Compound was evaluated for the reduction of liver cholesterol ester levels in the cholesterol-fed Hamster model.; assay type: functional
[5] = organism: Rattus norvegicus; assay: Compound was evaluated for the plasma concentration in female rats at 4 hr after post dose; assay type: functional, organism-based
[6] = organism: Rattus norvegicus; assay: Compound was evaluated for the plasma concentration in female rats at 8 hr after post dose; assay type: functional, organism-based
[7] = organism: Rattus norvegicus; assay: Compound was evaluated for the plasma concentration in female rats at 24 hr after post dose; assay type: functional, organism-based
[8] = organism: Rattus norvegicus; assay: Compound was evaluated for the plasma concentration in female rats at 1 hr after post dose; assay type: functional, organism-based
[9] = organism: Rattus norvegicus; assay: Compound was evaluated for the plasma concentration in female rats at 2 hr after post dose; assay type: functional, organism-based

`COc1ccc([C@@H]2[C@@H](CCOc3ccc([N+](=O)[O-])cc3)C(=O)N2c2ccccc2)cc1` was tested, and the Reduction [1] was -31%.
`COc1ccc(OCC[C@H]2C(=O)N(c3ccccc3)[C@@H]2c2ccc(OC)cc2)cc1` showed a Reduction [1] of -82%.
`COc1ccc([C@@H]2[C@@H](CCOc3ccc(F)cc3F)C(=O)N2c2ccccc2)cc1` gave a Reduction [1] of -88%.
`COc1ccc([C@@H]2[C@@H](CCOc3ccccc3)C(=O)N2c2ccc(OC)cc2)cc1` gave a Reduction [1] of -39%.
With `COc1ccc([C@@H]2[C@@H](CCOc3ccc4c(c3)CCC4)C(=O)N2c2ccccc2)cc1` (racemic) the Reduction [1] was -46%.
Work on `COc1ccc([C@@H]2[C@@H](CCOc3ccc(I)cc3)C(=O)N2c2ccccc2)cc1` (racemic) yielded a Reduction [1] of -47%.
For `COc1ccc([C@@H]2[C@@H](CCOc3ccc(F)cc3)C(=O)N2c2ccc(OC)cc2)cc1` (racemic), the Reduction [1] was -93%.
With `COc1ccc([C@@H]2[C@@H](CCCc3ccccc3)C(=O)N2c2ccc(OC)cc2)cc1` (racemic) [SCH-48461] the Reduction [2] was -78%.
In the case of `COc1ccc([C@@H]2[C@@H](CCOc3ccc(F)cc3)C(=O)N2c2ccccc2)cc1` (stereo in doubt; (+)4), the Reduction ([1]; 50 mg/kg) is reported as -28%.
Work on `COc1ccc([C@@H]2[C@@H](CCOc3ccc(F)cc3)C(=O)N2c2ccccc2)cc1` (stereo in doubt; (+/-)4) yielded a Reduction ([1]; 50 mg/kg) of -95%.
`COc1ccc([C@@H]2[C@@H](CCOc3ccc(F)cc3)C(=O)N2c2ccccc2)cc1` (stereo in doubt; (-)4) [listing 1 of 2 here] gave a Reduction ([1]; 50 mg/kg) of -93%, an ED100 [3] of 0.3 MPK and an ED50 [4] of 2.2 mg/kg.
Work on `COc1ccc([C@@H]2[C@@H](CCOc3ccc(F)cc3)C(=O)N2c2ccccc2)cc1` (stereo in doubt; (-)4) [listing 2 of 2 here] yielded a Plasma level [5] of under 30 ng/mL, a Plasma level [6] of 239 ng/mL and a Plasma level [7] of under 30 ng/mL. For the same compound, the Plasma level [8] was over 30 ng/mL and the Plasma level [9] was 41.1 ng/mL.
For `COc1ccc([C@@H]2[C@@H](CCCc3ccccc3)C(=O)N2c2ccc(OC)cc2)cc1` [SCH-48461], the ED100 [3] was 1 MPK.
